Measured values taken from US6794491B1, “Polypeptides, their production and use” (Takeda Chemical Industries, Ltd., priority 1995, dated 2004).
“Also recorded” adds a separate entry of the source. Where no end group is shown, it is not given here.

What was measured:
[1] = plasma growth hormone (GH) level in freely moving rats, GHRH-induced; format: in vivo, male Wistar rats; conditions: 50 nmol into the third ventricle, 5 μg/kg GHRH 10 min later
Experimental: Mature male Wistar rats were anesthetized with pentobarbital 50 mg/kg i.p. and, as in Example 41, a stainless-steel guide cannula AG-12 (0.4 mm in. dia., 0.5 mm out. dia., EICOM) was implanted in position with its tip situated in the upper part of the third ventricle. After the operation the rats were housed in individual cages and kept for at least 3 days for recuperation and, then, a cannula (30 cm long, 0.5 mm in. dia., 0.9 mm out. dia., Natsume Seisakusho) filled with heparin (200 U/ml)-containing saline was inserted into the right atrium from the right jugular vein under pentobarbital anesthesia. The rats were maintained overnight for complete arousal from anesthesia and then transferred to transparent acrylic cages (30 cm×30 cm×35 cm). A 1 ml tuberculin syringe with a 24-G needle (both by Termo) was connected to the cannula inserted in the atrium and 300 μl of blood was drawn. To prevent clotting, the syringe was filled with 20 μl of saline containing 200 U/ml of heparin beforehand. […] The concentrations of GH in the plasma were determined by radioimmunoassay.
The results were expressed as a mean±S.E.M. To test for significant difference between the group treated with 19P2-L31 dissolved in PBS and the control group treated with PBS alone, Student's t-test was used. […]

[2] = glucose-induced increase in plasma insulin concentration; format: in vivo, Male Wistar rats; conditions: bolus injection in the jugular vein with glucose 86 mg/rat
Experimental: Male Wistar rats (8-10w) were anesthetized by i.p. injection of pentobarbital (65 mg/kg). Glucose alone (86 mg/rat) or glucose and 19P2-L31 (675 pmol, 2.25 nmol, 6.75 nmol and 67.5 nmol/rat) were administered by bolus injection in the jugular vein. Blood samples were withdrawn from the contralateral vein. Plasma insulin concentration was determined with a radioimnunoassay kit (Amersham).

[3] = target: T1, full-length receptor protein expressed CHO cells (CHO-19P2); human pituitary receptor protein (hGR3) (Homo sapiens, UniProt P49683); assay: release of arachidonic acid metabolites from CHO-19P2 cells; format: cell-based; conditions: amount of [3H]arachidonic acid metabolites, 10^−12 M-10^−6 M in 0.05% BSA-HBSS
T1 construct: to construct a full-length receptor protein expression plasmid pAKKO-19P2; expressed in transfected cells; host or cells: CHO dhfr- cells transfected with pAKKO-19P2 (CHO-19P2; clone CHO-19P2-9)
T1 sequence (P49683 1-370): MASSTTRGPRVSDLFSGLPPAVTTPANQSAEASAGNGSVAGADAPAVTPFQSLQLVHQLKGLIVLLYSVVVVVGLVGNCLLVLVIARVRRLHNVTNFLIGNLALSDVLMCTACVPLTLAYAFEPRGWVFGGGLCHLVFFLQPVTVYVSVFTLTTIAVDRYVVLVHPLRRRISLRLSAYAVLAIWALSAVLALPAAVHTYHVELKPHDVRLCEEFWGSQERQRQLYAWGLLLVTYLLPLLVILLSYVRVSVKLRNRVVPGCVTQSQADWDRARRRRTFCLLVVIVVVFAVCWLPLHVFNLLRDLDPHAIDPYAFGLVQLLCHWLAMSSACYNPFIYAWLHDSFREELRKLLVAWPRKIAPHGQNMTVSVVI
Experimental: The full-length receptor protein-expressed CHO cells and mock CHO cells were seeded in a 24-well plate, 0.5×10^5 cells/well, and cultured for 24 hours. Then, [^3H] arachidonic acid was added at a final concentration of 0.25 μCi/well. Sixteen (16) hours after addition of [^3H] arachidonic acid, the cells were rinsed with 0.05% BSA-HBSS and the above-mentioned crude peptide fraction was added, 400 μl/well. The mixture was incubated at 37° C. for 30 minutes and a 300 μl portion of the reaction mixture (400 μl) was added to 4 ml of a scintillator and the amount of [^3H] arachidonic acid metabolite released into the reaction mixture was determined with a scintillation counter.
The activity of the peptide (19P2-L31) synthesized in Example 21 to specifically release arachidonic acid metabolites from CHO-19P2 cells was assayed in the same manner as Example 11. The synthetic peptide was dissolved in degassed dH20 at a concentration of 10^−3M and diluted with 0.05% BSA-HBSS and the activity to promote release of arachidonic acid metabolites from CHO-19P2 cells at each concentration was assayed using the amount of [^3H]arachidonic acid metabolites as the indicator.
The activity of the synthetic equivalent (19P2-L20) of natural peptide P-2 as synthesized in Example 23 to specifically promote release of arachidonic acid metabolites from CHO-19P2 cells was determined as in Example 11. Thus, the synthetic peptide was dissolved in degassed dH2O at a final concentration of 10^−3M and this solution was serially diluted with 0.05% BAS-HBSS. The activity to specifically promote release of arachidonic acid metabolites from CHO-19P2 cells at each concentration was assayed using the amount of [^3H]arachidonic acid metabolites as the indicator.

Ser-Arg-Ala-His-Gln-His-Ser-Met-Glu-Ile-Arg-Thr-Pro-Asp-Ile-Asn-Pro-Ala-Trp-Tyr-Ala-Gly-Arg-Gly-Ile-Arg-Pro-Val-Gly-Arg-Phe-NH2 (SRAHQHSMEIRTPDINPAWYAGRGIRPVGRF-NH2) [19P2-L31, synthetic ligand polypeptide]
GHRH-induced elevation of plasma GH [1]: significantly inhibited | glucose-induced increase in plasma insulin concentration (first and second phase) ([2]; 675 pmol/rat): partially inhibited | glucose-induced increase in plasma insulin concentration (first and second phase) ([2]; 2.25 nmol/rat): partially inhibited | glucose-induced increase in plasma insulin concentration (first and second phase) ([2]; 6.75 nmol/rat): partially inhibited | glucose-induced increase in plasma insulin concentration (first and second phase) ([2]; 67.5 nmol/rat): completely inhibited | arachidonic acid metabolite-releasing activity [3]: concentration-dependent arachidonic acid metabolite-releasing activity was detected over the range of 10^−12M-10^−6M; also recorded: found in a concentration-dependent manner
